Experiment in all cases: stopped-flow CO2 hydrase assay
Assay type in all cases: biochemical

In one test the target is T1, hCA XII (Homo sapiens, UniProt O43570).
T1 construct: gene CA12; recombinant, obtained in-house
Particulars: read-out: KI (nM)^a,b / hCA XII. From the text: stopped-flow CO2 hydrase assay on hCA XII

In the next test the target is T2, hCA IX (Homo sapiens, UniProt Q16790).
T2 construct: gene CA9; recombinant, obtained in-house
Particulars: read-out: KI (nM)^a,b / hCA IX. From the text: stopped-flow CO2 hydrase assay on hCA IX

A further test concerns the target T3, hCA II (Homo sapiens, UniProt P00918).
T3 construct: gene CA2; recombinant, obtained in-house
As to conditions: read-out: KI (nM)^a,b / hCA I.

In another test the target is T4, hCA I (Homo sapiens, UniProt P00915).
T4 construct: gene CA1; recombinant, obtained in-house
T4 sequence (P00915 2-261): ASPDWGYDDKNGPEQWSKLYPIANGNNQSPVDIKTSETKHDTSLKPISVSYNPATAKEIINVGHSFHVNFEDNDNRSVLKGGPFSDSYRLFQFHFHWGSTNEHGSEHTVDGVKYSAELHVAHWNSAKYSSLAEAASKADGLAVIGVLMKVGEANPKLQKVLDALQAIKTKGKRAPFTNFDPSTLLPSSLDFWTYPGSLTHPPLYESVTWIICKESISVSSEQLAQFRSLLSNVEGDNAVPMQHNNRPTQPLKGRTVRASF
As to conditions: read-out: KI (nM)^a,b / hCA I. From the text:
stopped-flow CO2 hydrase assay on hCA I

Some results are limits rather than exact numbers.

T1 sequence (O43570 25-354): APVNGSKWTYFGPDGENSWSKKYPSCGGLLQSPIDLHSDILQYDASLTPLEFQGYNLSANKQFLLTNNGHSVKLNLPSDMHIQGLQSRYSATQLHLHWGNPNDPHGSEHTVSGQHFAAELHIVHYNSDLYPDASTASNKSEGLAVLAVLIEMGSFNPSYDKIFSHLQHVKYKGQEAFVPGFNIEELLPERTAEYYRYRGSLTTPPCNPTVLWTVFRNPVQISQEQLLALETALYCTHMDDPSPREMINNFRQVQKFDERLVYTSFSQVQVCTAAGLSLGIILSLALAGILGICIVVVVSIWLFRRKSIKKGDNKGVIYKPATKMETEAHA

For `O=C(Nc1ccc2c(c1)C=CCS(=O)(=O)O2)c1ccccc1I` [compound 12, N-(2,2-Dioxido-3H-1,2-benzoxathiepin-7-yl)-2-iodobenzamide], the Ki on hCA XII was 644 nM; on hCA IX, 45.4 nM; at hCA II, more than 100000 nM; at hCA I, more than 100000 nM.
As to `O=C(Nc1ccc2c(c1)C=CCS(=O)(=O)O2)c1ccc(Br)cc1` [compound 11, N-(2,2-Dioxido-3H-1,2-benzoxathiepin-7-yl)4-bromobenzamide], the Ki at hCA XII was 141 nM; on hCA IX, 353 nM; on hCA II, more than 100000 nM; at hCA I, more than 100000 nM.
On to `CC(=O)Nc1ccc2c(c1)C=CCS(=O)(=O)O2` [compound 8, N-(2,2-Dioxido-3H-1,2-benzoxathiepin-7-yl)acetamide], for which the Ki at hCA XII was 162 nM; on hCA IX, 61.8 nM; at hCA II it was more than 100000 nM; at hCA I, more than 100000 nM.
Turning to `Cc1ccc(C(=O)Nc2ccc3c(c2)C=CCS(=O)(=O)O3)cc1` [compound 10, N-(2,2-Dioxido-3H-1,2-benzoxathiepin-7-yl)-4-methy benzamide], the Ki is 309 nM on hCA XII, 83 nM on hCA IX, more than 100000 nM on hCA II and more than 100000 nM at hCA I.
Regarding `O=C(Nc1ccc2c(c1)C=CCS(=O)(=O)O2)c1cccs1` [compound 16, N-(2,2-Dioxido-3H-1,2-benzoxathiepin-7-yl)thiophene-2-carboxamide], the Ki at hCA XII is 73.2 nM; on hCA IX, 178 nM; on hCA II, more than 100000 nM; at hCA I it was more than 100000 nM.
Take `O=C(Nc1ccc2c(c1)C=CCS(=O)(=O)O2)c1ccccc1Br` [compound 13, N-(2,2-Dioxido-3H-1,2-benzoxathiepin-7-yl)-2-bromobenzamide]: the Ki is 96.2 nM on hCA XII, 66.8 nM on hCA IX, more than 100000 nM on hCA II and more than 100000 nM on hCA I.
In the case of `O=C(Nc1ccc2c(c1)C=CCS(=O)(=O)O2)c1ccccc1` [compound 9, N-(2,2-Dioxido-3H-1,2-benzoxathiepin-7-yl)benzamide], the Ki is 370 nM on hCA XII, 209 nM on hCA IX, more than 100000 nM at hCA II and more than 100000 nM at hCA I.
With `O=C(Nc1ccc2c(c1)C=CCS(=O)(=O)O2)c1ccccc1F` [compound 14, N-(2,2-Dioxido-3H-1,2-benzoxathiepin-7-yl)-2-fluorobenzamide], the Ki on hCA XII was 40.3 nM; at hCA IX, 74.6 nM; at hCA II, more than 100000 nM; at hCA I, more than 100000 nM.
For the compound `O=C(Nc1ccc2c(c1)C=CCS(=O)(=O)O2)c1ccccc1C(F)(F)F` [compound 15, N-(2,2-Dioxido-3H-1,2-benzoxathiepin-7-yl)-2-(trifluoromethyl)benzamide], the Ki was 8.7 nM on hCA XII, 19.7 nM at hCA IX, more than 100000 nM on hCA II and more than 100000 nM on hCA I.
With `O=C(Nc1ccc2c(c1)C=CCS(=O)(=O)O2)c1ccco1` [compound 17, N-(2,2-Dioxido-3H-1,2-benzoxathiepin-7-yl)furan-2-carboxamide], the Ki on hCA XII was 134 nM; at hCA IX it was 210 nM; on hCA II it was more than 100000 nM; at hCA I, more than 100000 nM.

(Values after paper PMC7048192, “7-Acylamino-3H-1,2-benzoxathiepine 2,2-dioxides as new isoform-selective carbonic anhydrase IX and XII inhibitors” (Journal of Enzyme Inhibition and Medicinal Chemistry, 2020).)
